Biological target: T1, LXRβ (Homo sapiens, UniProt P55055)
T1 construct: Co-transfection expression plasmids, comprising full-length LXRα (pCMX-h LXRα[…] or LXRβ (pCMX-hLXRβ)); expressed in transfected cells; host or cells: CV-1 African Green Monkey Kidney Cells
T1 sequence (P55055 1-460): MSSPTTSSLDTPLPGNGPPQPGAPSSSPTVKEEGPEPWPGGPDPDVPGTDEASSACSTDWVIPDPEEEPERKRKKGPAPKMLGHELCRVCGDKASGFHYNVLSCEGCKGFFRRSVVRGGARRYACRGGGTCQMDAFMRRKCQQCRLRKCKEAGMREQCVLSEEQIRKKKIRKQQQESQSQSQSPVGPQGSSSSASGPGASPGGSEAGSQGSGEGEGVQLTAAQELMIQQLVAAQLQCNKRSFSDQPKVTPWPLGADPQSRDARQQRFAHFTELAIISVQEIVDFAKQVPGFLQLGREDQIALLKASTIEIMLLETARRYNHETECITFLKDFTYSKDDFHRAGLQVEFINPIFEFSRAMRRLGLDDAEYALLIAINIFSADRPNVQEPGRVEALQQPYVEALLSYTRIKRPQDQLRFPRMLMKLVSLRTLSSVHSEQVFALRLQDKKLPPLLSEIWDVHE
T1 sequence (P19793 1-462 partner): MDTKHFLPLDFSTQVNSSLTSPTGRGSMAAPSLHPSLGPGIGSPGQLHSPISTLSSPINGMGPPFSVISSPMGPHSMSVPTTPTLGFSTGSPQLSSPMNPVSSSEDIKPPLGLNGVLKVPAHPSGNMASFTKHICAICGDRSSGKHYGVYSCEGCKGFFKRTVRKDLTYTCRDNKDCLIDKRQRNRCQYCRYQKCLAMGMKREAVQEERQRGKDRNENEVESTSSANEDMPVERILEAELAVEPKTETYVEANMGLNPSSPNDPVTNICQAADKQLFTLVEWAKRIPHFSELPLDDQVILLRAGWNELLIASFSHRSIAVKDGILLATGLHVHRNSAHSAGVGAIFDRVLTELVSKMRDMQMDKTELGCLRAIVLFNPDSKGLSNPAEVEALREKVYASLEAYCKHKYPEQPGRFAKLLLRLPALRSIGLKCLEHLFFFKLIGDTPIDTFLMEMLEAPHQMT
Experiment: Co-transfection assay (LXRE luciferase reporter), LXRβ
Format: cell-based
Conditions: for EC50: CV-1 cells transfected with pCMX-hLXRβ and LXREx1-Tk-Luciferase, 20 hours incubation; for Emax: LXRβ co-transfection, relative to high control 1-(2,4-difluorobenzyl)-2-oxo-6-(4-phenoxyphenyl)-4-(trifluoromethyl)-1,2-dihydropyridine-3-carbonitrile, read-out: % Efficacy
Method in brief: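 Cell-based LXRβ agonism measured as LXRE-luciferase induction in transiently transfected CV-1 cells after 20 h treatment. Potency is the curve-fit EC50; efficacy is expressed as percent of a full-agonist control's maximal response.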

Row | EC50 | Emax | SMILES
1 | 949 nM | 72% | Cc1nc(C2CC2)cn1-c1ccc(-c2cccc(S(C)(=O)=O)c2)cc1-n1nncc1-c1ccc(OC(F)(F)F)cc1 [Example 229, 1-(4-(4-cyclopropyl-2-methyl-1H-imidazol-1-yl)-3′-(methylsulfonyl)-[1,1′-biphenyl]-3-yl)-5-(4-(trifluoromethoxy)phenyl)-1H-1,2,3-triazole]
2 | 2050 nM | 24% | Cc1nc(C(F)F)c(C)n1-c1ccc(-c2cccc(S(C)(=O)=O)c2)cc1-n1nncc1-c1ccc(Cl)cc1 [Example 230, 5-(4-chlorophenyl)-1-(4-(4-(difluoromethyl)-2,5-dimethyl-1H-imidazol-1-yl)-3′-(methylsulfonyl)-[1,1′-biphenyl]-3-yl)-1H-1,2,3-triazole]
3 | 1680 nM | 37% | Cc1nc(C(F)F)c(C)n1-c1ccc(-c2cc(F)c(CO)c(S(C)(=O)=O)c2)cc1-n1nncc1-c1ccc(Cl)cc1 [Example 231, (3′-(5-(4-chlorophenyl)-1H-1,2,3-triazol-1-yl)-4′-(4-(difluoromethyl)-2,5-dimethyl-1H-imidazol-1-yl)-3-fluoro-5-(methylsulfonyl)-[1,1′-biphenyl]-4-yl)methanol]
4 | 1970 nM | 74% | Cc1nc(C(F)F)c(C)n1-c1ccc(-c2cccc(S(C)(=O)=O)c2)cc1-n1nncc1-c1ccc(OC(F)(F)F)cc1 [Example 232, 1-(4-(4-(difluoromethyl)-2,5-dimethyl-1H-imidazol-1-yl)-3′-(methylsulfonyl)-[1,1′-biphenyl]-3-yl)-5-(4-(trifluoromethoxy)phenyl)-1H-1,2,3-triazole]
5 | 1340 nM | 92% | Cc1nc(C(F)F)c(C)n1-c1ccc(-c2cc(F)c(CO)c(S(C)(=O)=O)c2)cc1-n1nncc1-c1ccc(OC(F)(F)F)cc1 [Example 233, (4′-(4-(difluoromethyl)-2,5-dimethyl-1H-imidazol-1-yl)-3-fluoro-5-(methylsulfonyl)-3′-(5-(4-(trifluoromethoxy)phenyl)-1H-1,2,3-triazol-1-yl)-[1,1′-biphenyl]-4-yl)methanol]
6 | 1200 nM | 75% | Cc1nc(C(=O)C(C)C)cn1-c1ccc(-c2cccc(S(C)(=O)=O)c2)cc1-n1nncc1-c1ccc(OC(F)(F)F)cc1 [Example 234, 2-methyl-1-(2-methyl-1-(3′-(methylsulfonyl)-3-(5-(4-(trifluoromethoxy)phenyl)-1H-1,2,3-triazol-1-yl)-[1,1′-biphenyl]-4-yl)-1H-imidazol-4-yl)propan-1-one]
7 | 2270 nM | 85% | Cc1nc(C(=O)C(C)C)cn1-c1ccc(-c2cc(F)c(CO)c(S(C)(=O)=O)c2)cc1-n1nncc1-c1ccc(OC(F)(F)F)cc1 [Example 235, 1-(1-(3′-fluoro-4′-(hydroxymethyl)-5′-(methylsulfonyl)-3-(5-(4-(trifluoromethoxy)phenyl)-1H-1,2,3-triazol-1-yl)-[1,1′-biphenyl]-4-yl)-2-methyl-1H-imidazol-4-yl)-2-methylpropan-1-one]
8 | 198 nM | 89% | Cc1nc(C(F)(F)F)cn1-c1ccc(-c2ccc(CCO)c(S(C)(=O)=O)c2)cc1-n1nncc1-c1ccc(OC(F)(F)F)cc1 [Example 236, 2-(4′-(2-methyl-4-(trifluoromethyl)-1H-imidazol-1-yl)-3-(methylsulfonyl)-3′-(5-(4-(trifluoromethoxy)phenyl)-1H-1,2,3-triazol-1-yl)-[1,1′-biphenyl]-4-yl)ethanol]
9 | 192 nM | 98% | Cc1nc(C(F)(F)F)cn1-c1ccc(-c2cc(F)c(CCO)c(S(C)(=O)=O)c2)cc1-n1nncc1-c1ccc(OC(F)(F)F)cc1 [Example 237, 2-(3-fluoro-4′-(2-methyl-4-(trifluoromethyl)-1H-imidazol-1-yl)-5-(methylsulfonyl)-3′-(5-(4-(trifluoromethoxy)phenyl)-1H-1,2,3-triazol-1-yl)-[1,1′-biphenyl]-4-yl)ethanol]
10 | 489 nM | 90% | COCS(=O)(=O)c1cccc(-c2ccc(-n3cc(C(F)(F)F)nc3C)c(-n3nncc3-c3ccc(OC(F)(F)F)cc3)c2)c1 [Example 238, 1-(3′-((methoxymethyl)sulfonyl)-4-(2-methyl-4-(trifluoromethyl)-1H-imidazol-1-yl)-[1,1′-biphenyl]-3-yl)-5-(4-(trifluoromethoxy)phenyl)-1H-1,2,3-triazole]
11 | 142 nM | 129% | Cc1nc(C(F)(F)F)c(Cl)n1-c1ccc(-c2cc(F)c(CO)c(S(C)(=O)=O)c2)cc1-c1cnnn1-c1ccc(Cl)cc1 [Example 240, {4′-[5-chloro-2-methyl-4-(trifluoromethyl)-1H-imidazol-1-yl]-3′-[1-(4-chlorophenyl)-1H-1,2,3-triazol-5-yl]-3-fluoro-5-(methylsulfonyl)biphenyl-4-yl}methanol]
12 | 405 nM | 111% | Cc1nc(C(F)(F)F)cn1-c1ccc(-c2cccc(C(C)(C)C(N)=O)c2)cc1-c1cnnn1-c1ccc(OC(F)(F)F)cc1 [Example 241, 2-methyl-2-{4′-[2-methyl-4-(trifluoromethyl)-1H-imidazol-1-yl]-3′-(1-{4-[(trifluoromethyl)oxy]phenyl}-1H-1,2,3-triazol-5-yl)biphenyl-3-yl}propanamide]
13 | 201 nM | 105% | Cc1nc(C(F)(F)F)cn1-c1ccc(-c2cccc(S(C)(=O)=O)c2)cc1-c1cnnn1-c1ccc(OC(F)(F)F)cc1 [Example 242, 5-{3′-(methylsulfonyl)-4-[2-methyl-4-(trifluoromethyl)-1H-imidazol-1-yl]biphenyl-3-yl}-1-{4-[(trifluoromethyl)oxy]phenyl}-1H-1,2,3-triazole]
14 | 238 nM | 107% | Cc1nc(C(F)(F)F)c(Cl)n1-c1ccc(-c2cccc(S(C)(=O)=O)c2)cc1-c1cnnn1-c1ccc(Cl)cc1 [Example 243, 5-{4-[5-chloro-2-methyl-4-(trifluoromethyl)-1H-imidazol-1-yl]-3′-(methylsulfonyl)biphenyl-3-yl}-1-(4-chlorophenyl)-1H-1,2,3-triazole]
15 | 223 nM | 110% | Cc1nc(C(F)(F)F)cn1-c1ccc(-c2cc(F)c(CO)c(S(C)(=O)=O)c2)cc1-c1cnnn1-c1ccc(OC(F)(F)F)cc1 [Example 244, [3-fluoro-5-(methylsulfonyl)-4′-[2-methyl-4-(trifluoromethyl)-1H-imidazol-1-yl]-3′-(1-{4-[(trifluoromethyl)oxy]phenyl}-1H-1,2,3-triazol-5-yl)biphenyl-4-yl]methanol]
16 | 216 nM | 102% | Cc1nc(C(F)F)cn1-c1ccc(-c2cccc(S(C)(=O)=O)c2)cc1-c1cnnn1Cc1ccc(Cl)cc1 [Example 245, 1-(4-chlorobenzyl)-5-(4-(4-(difluoromethyl)-2-methyl-1H-imidazol-1-yl)-3′-(methylsulfonyl)-[1,1′-biphenyl]-3-yl)-1H-1,2,3-triazole]
17 | 475 nM | 91% | CNS(=O)(=O)c1cccc(-c2ccc(-n3cc(C(F)F)nc3C)c(-c3cnnn3Cc3ccc(Cl)cc3)c2)c1 [Example 246, 3′-(1-(4-chlorobenzyl)-1H-1,2,3-triazol-5-yl)-4′-(4-(difluoromethyl)-2-methyl-1H-imidazol-1-yl)-N-methyl-[1,1′-biphenyl]-3-sulfonamide]
18 | 315 nM | 99% | CCS(=O)(=O)c1cccc(-c2ccc(-n3cc(C(F)F)nc3C)c(-c3cnnn3Cc3ccc(Cl)cc3)c2)c1 [Example 247, 1-(4-chlorobenzyl)-5-(4-(4-(difluoromethyl)-2-methyl-1H-imidazol-1-yl)-3′-(ethylsulfonyl)-[1,1′-biphenyl]-3-yl)-1H-1,2,3-triazole]
19 | 185 nM | 88% | Cc1nc(C(F)F)cn1-c1ccc(-c2cc(F)c(CO)c(S(C)(=O)=O)c2)cc1-c1cnnn1Cc1ccc(Cl)cc1 [Example 248, (3′-(1-(4-chlorobenzyl)-1H-1,2,3-triazol-5-yl)-4′-(4-(difluoromethyl)-2-methyl-1H-imidazol-1-yl)-3-fluoro-5-(methylsulfonyl)-[1,1′-biphenyl]-4-yl)methanol]
20 | 152 nM | 84% | Cc1nc(C(F)(F)F)cn1-c1ccc(-c2cccc(S(C)(=O)=O)c2)cc1-c1ccnn1-c1ccc(Cl)cc1 [Example 286, 1-(4-chlorophenyl)-5-{3′-(methylsulfonyl)-4-[2-methyl-4-(trifluoromethyl)-1H-imidazol-1-yl]biphenyl-3-yl}-1H-pyrazole]

From patent publication US9834542B2, “LXR modulators” (BRISTOL-MYERS SQUIBB COMPANY, priority 2013, dated 2017)
